# Where a name gives a salt, the structure may show the parent alone.
# Target: T1, Human DPP IV (Homo sapiens, UniProt P27487)
# T1 construct: Human serum containing DPP-IV enzyme was diluted finally 9- to 20-fold with assay buffer; from tissue; host or cells: human serum
# Test: In Vitro DPP-IV Inhibitory Effect Measurement Test
# Assay type: biochemical
# Details: human serum containing DPP-IV enzyme; substrate Glycyl-L-Proline 4-Methyl-Coumaryl-7-Amide 10 to 100 μM; room temperature; fluorescence 360/460 nm; read-out: Human DPP IV inhibiting activity IC50
# Description: In Vitro DPP-IV Inhibitory Effect Measurement Test
# Human serum containing DPP-IV enzyme was diluted finally 9- to 20-fold with assay buffer and added to a microassay plate. Each of solutions of each test compound having various concentrations was added thereto, followed by adding thereto a substrate (Glycyl-L-Proline 4-Methyl-Coumaryl-7-Amide, Peptide Laboratories Co., Ltd.) to a final concentration of 10 to 100 μM, and the reaction was carried out at room temperature. Acetic acid was added thereto to a final concentration of 0.5% to terminate the reaction, and the intensity of fluorescence at an excitation wavelength of 360 nm and a measuring wavelength of 460 nm was measured by the use of a fluorescent plate reader.
# T1 sequence (P27487 39-766 limits assumed): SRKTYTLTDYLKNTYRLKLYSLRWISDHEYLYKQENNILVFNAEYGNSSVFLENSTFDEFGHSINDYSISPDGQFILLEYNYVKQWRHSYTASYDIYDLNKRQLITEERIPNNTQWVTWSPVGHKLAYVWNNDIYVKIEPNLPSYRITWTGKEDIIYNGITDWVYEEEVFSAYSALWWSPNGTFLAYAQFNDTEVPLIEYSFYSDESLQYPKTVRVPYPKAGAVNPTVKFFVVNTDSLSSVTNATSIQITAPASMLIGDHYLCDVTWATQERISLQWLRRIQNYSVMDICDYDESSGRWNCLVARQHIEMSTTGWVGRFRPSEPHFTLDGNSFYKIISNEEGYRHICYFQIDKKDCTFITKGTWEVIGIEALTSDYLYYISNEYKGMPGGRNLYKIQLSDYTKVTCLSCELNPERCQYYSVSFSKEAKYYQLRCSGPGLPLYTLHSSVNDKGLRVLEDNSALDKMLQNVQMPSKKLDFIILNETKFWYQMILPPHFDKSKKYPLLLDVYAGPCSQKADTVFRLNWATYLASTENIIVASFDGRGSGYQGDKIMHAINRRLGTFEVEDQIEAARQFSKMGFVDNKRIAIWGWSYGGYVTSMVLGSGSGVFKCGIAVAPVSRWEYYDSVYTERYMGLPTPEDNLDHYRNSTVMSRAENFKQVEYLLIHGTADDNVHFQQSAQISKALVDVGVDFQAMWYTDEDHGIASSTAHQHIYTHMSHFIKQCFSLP
row,IC50,SMILES
1,26 nM,"Cn1c(O)nc2c(C#N)c(N3CCC[C@@H](N)C3)n(Cc3ccccc3Cl)c2c1=O [Example 3, 6-[(3R)-3-Aminopiperidin-1-yl]-5-(2-chlorobenzyl)-2-hydroxy-3-methyl-4-oxo-4,5-dihydro-3H-pyrrolo[3,2-d]pyrimidine-7-carbonitrile hydrochloride]"
2,15 nM,"Cn1c(=O)c2c(cc(N3CCC[C@@H](N)C3)n2Cc2ccccc2Cl)n(C)c1=O [Example 5, 6-(3-Aminopiperidin-1-yl)-5-(2-chlorobenzyl)-1,3-dimethyl-1H-pyrrolo[3,2-d]pyrimidine-2,4(3H,5H)-dione hydrochloride]"
3,7.1 nM,Cn1c(=O)n(CC(=O)c2ccccc2)c(=O)c2c1cc(N1CCC[C@@H](N)C1)n2Cc1cc(F)ccc1Cl [Example 19]
4,28 nM,"Cn1c(S(C)(=O)=O)nc2c(C#N)c(N3CCC[C@@H](N)C3)n(Cc3ccccc3Cl)c2c1=O [Example 4, 6-[(3R)-3-Aminopiperidin-1-yl]-5-(2-chlorobenzyl)-3-methyl-2-(methylsulfonyl)-4-oxo-4,5-dihydro-3H-pyrrolo[3,2-d]pyrimidine-7-carbonitrile hydrochloride]"
5,13 nM,Cn1cnc2cc(N3CCC[C@@H](N)C3)n(Cc3cc(F)ccc3Cl)c2c1=O [Example 64]
6,4.1 nM,COCCNC(=O)c1c(N2CCC[C@@H](N)C2)n(Cc2cc(F)ccc2Cl)c2c(=O)n(C)c(=O)n(C)c12 [Example 41]
7,60 nM,"Cn1c(Oc2ccccc2C(N)=O)nc2c(C#N)c(N3CCC[C@@H](N)C3)n(Cc3ccccc3Cl)c2c1=O [Example 7, 2-{[6-(3-Aminopiperidin-1-yl)-5-(2-chlorobenzyl)-7-cyano-3-methyl-4-oxo-4,5-dihydro-3H-pyrrolo[3,2-d]pyrimidin-2-yl]oxy}benzamide hydrochloride]"
8,55 nM,CC#CCn1c(N2CCC[C@@H](N)C2)cc2c1c(=O)n(C)c(=O)n2C [Example 14]
9,12 nM,Cn1c(=O)c2c(c(C(=O)N3CCC(O)CC3)c(N3CCC[C@@H](N)C3)n2Cc2ccccc2Cl)n(C)c1=O [Example 33]
10,9 nM,Cn1c(=O)c2c(c(C(=O)N3CCOCC3)c(N3CCC[C@@H](N)C3)n2Cc2cc(F)ccc2Cl)n(C)c1=O [Example 44]
11,56 nM,COc1ccc(-c2c(N3CCC[C@@H](N)C3)n(Cc3ccccc3Cl)c3c(=O)n(C)c(=O)n(C)c23)cc1 [Example 62]
12,31 nM,COCc1c(N2CCC[C@@H](N)C2)n(Cc2ccccc2Cl)c2c(=O)n(C)c(=O)n(C)c12 [Example 56]
13,12 nM,Cn1c(=O)n(Cc2cc3ccccc3cn2)c(=O)c2c1cc(N1CCC[C@@H](N)C1)n2Cc1cc(F)ccc1Cl [Example 18]
14,1200 nM,"CCOC(=O)c1c(N)c(C#N)c(N2CCC[C@@H](N)C2)n1Cc1ccccc1Cl [Example 72, Ethyl 3-amino-5-[(3R)-3-aminopiperidin-1-yl]-1-(2-chlorobenzyl)-4-cyano-1H-pyrrole-2-carboxylate hydrochloride]"
15,5.5 nM,Cn1cnc2c(C(=O)N3CCOCC3)c(N3CCC[C@@H](N)C3)n(Cc3cc(F)ccc3Cl)c2c1=O [Example 66]
16,1.9 nM,"Cn1c(=O)c2c(cc(N3CCC[C@@H](N)C3)n2Cc2cc(F)ccc2Cl)n(C)c1=O [Example 6, 6-(3-Aminopiperidin-1-yl)-5-(2-chloro-5-fluorobenzyl)-1,3-dimethyl-1H-pyrrolo[3,2-d]pyrimidine-2,4(3H,5H)-dione hydrochloride]"
17,7.5 nM,Cn1c(=O)c2c(c(C(=O)NCC(O)CO)c(N3CCC[C@@H](N)C3)n2Cc2ccccc2Cl)n(C)c1=O (stereo partly shown) [Example 32]
18,76 nM,"CCOc1cccc(Oc2nc3c(C#N)c(N4CCC[C@@H](N)C4)n(Cc4ccccc4Cl)c3c(=O)n2C)c1 [Example 1, 6-[(3R)-3-Aminopiperidin-1-yl]-5-(2-chlorobenzyl)-2-(3-ethoxyphenoxy)-3-methyl-4-oxo-4,5-dihydro-3H-pyrrolo[3,2-d]pyrimidine-7-carbonitrile hydrochloride]"
19,3800 nM,"Cn1c(=O)c2c(c(C#N)c(N3CCC[C@H](N)C3)n2Cc2cc(F)ccc2Cl)n(C)c1=O [Example 70, 6-[(3S)-3-Aminopiperidin-1-yl]-5-(2-chloro-5-fluorobenzyl)-1,3-dimethyl-2,4-dioxo-2,3,4,5-tetrahydro-1H-pyrrolo[3,2-d]pyrimidine-7-carbonitrile hydrochloride]"
20,9.8 nM,Cn1c(=O)c2c(c(C(=O)N3CCCC3)c(N3CCC[C@@H](N)C3)n2Cc2ccccc2Cl)n(C)c1=O [Example 27]
21,5.7 nM,Cn1c(=O)c2c(c(C(=O)NCC(F)(F)F)c(N3CCC[C@@H](N)C3)n2Cc2cc(F)ccc2Cl)n(C)c1=O [Example 42]
22,7.4 nM,Cn1c(=O)c2c(cc(N3CCC[C@@H](N)C3)n2Cc2ccccc2C#N)n(C)c1=O [Example 8]
23,4.3 nM,Cn1c(=O)[nH]c(=O)c2c1cc(N1CCC[C@@H](N)C1)n2Cc1cc(F)ccc1Cl [Example 20]
24,21 nM,"Cn1c(=O)c2c(c(C#N)c(N3CCC[C@@H](N)C3)n2Cc2ccccc2Cl)n(C)c1=O [Example 2, 6-[(3R)-3-Aminopiperidin-1-yl]-5-(2-chlorobenzyl)-1,3-dimethyl-2,4-dioxo-2,3,4,5-tetrahydro-1H-pyrrolo[3,2-d]pyrimidine-7-carbonitrile hydrochloride]"
25,7.6 nM,CN(C)C(=O)c1c(N2CCC[C@@H](N)C2)n(Cc2ccccc2Cl)c2c(=O)n(C)c(=O)n(C)c12 [Example 25]
26,44 nM,CCOC(=O)c1c(N2CCC[C@@H](N)C2)n(Cc2ccccc2Cl)c2c(=O)n(C)c(=O)n(C)c12 [Example 24]

row,SMILES,IC50
1,CC(=O)c1c(N2CCC[C@@H](N)C2)n(Cc2ccccc2Cl)c2c(=O)n(C)c(=O)n(C)c12 [Example 61],85 nM
2,Cn1c(=O)c2c(c(C(=O)NC3CCC3)c(N3CCC[C@@H](N)C3)n2Cc2cc(F)ccc2Cl)n(C)c1=O [Example 40],6.8 nM
